This is an account of results in a melting point compilation (Tetko et al.; mined from patent text by program, amines drawn as free bases though some values may be those of a salt).

As to `COCCO[C@@H]1c2ccc3c(nc(C4CC4)n3C)c2O[C@H](c2ccccc2)[C@H]1O`, the melting point was determined as 133 °C.
The same measure for `CC(Oc1cccc(C(=O)NCCN(O)C(N)=O)c1)c1ccccc1` (centres undefined): 164 to 165 °C; for `CN(CC(=O)c1cccn1Cc1ccccc1[N+](=O)[O-])Cc1ccccc1`: 103 to 105 °C.
The same measure for `CS(=O)(=O)c1nccc(-c2c(-c3ccc(F)cc3)nc3sccn23)n1`: 197 to 198 °C; for `Cc1cc([N+](=O)[O-])ccc1NCCCn1ccnc1`: 163 °C; for `Cc1[nH]c(-c2ccccc2)c2nc(-c3ccccc3)[nH]c(=O)c12`: 345 to 348 °C.
Then `Cc1cccc2[nH]c(C=O)cc12`, with 147 to 149 °C; and `O=Cc1ccc(C(=O)NCC(F)(F)F)cc1`, with 83 to 84 °C; and `CC(=O)Nc1ccc(O)cc1Cl`, with 128 to 129 °C.
Take `O=C(O)CC(CC(=O)O)Cc1ccc(O)cc1`: the melting point was in the range of 117 to 119 °C.
The same measure for `O=C(O)CCc1oc(-n2ccnc2-c2ccccc2)nc1-c1ccc(Cl)cc1`: 179 to 180 °C; for `COc1cc(COc2ncccc2CC(=O)O)ccc1OCc1nc(-c2ccccc2)oc1C`: 145 to 146 °C; for `CCOC(=O)C(=O)c1cn(Cc2ccc(C(C)(C)C)cc2)c2cc(-c3ccc(OC(F)(F)F)cc3)ccc12`: 146 to 147 °C.
Then `CC1(C)CC(Nc2nc(NC3CC(C)(C)N(O)C(C)(C)C3)nc(N(C3CC(C)(C)N(O)C(C)(C)C3)C3CC(C)(C)N(O)C(C)(C)C3)n2)CC(C)(C)N1O`, with 243 to 246 °C; and `COc1ccc2sc(=Nc3ccccc3)sc2c1`, with 58 to 60 °C; and `CN(CCS(C)(=O)=O)C1CCN(S(=O)(=O)c2ccc(Nc3nccc(-c4ccc(F)cc4)n3)cc2)CC1`, with 166 °C.
Then `Nc1ccc(Oc2c(Cl)cc(C(F)(F)F)cc2Cl)cc1S(=O)(=O)c1cc[nH]n1`, with 232 °C; and `O=C(Nc1cccc(-c2ccnc3c(C(=O)c4cccs4)cnn23)c1)c1c(F)cccc1F`, with 159 to 160 °C.
The molecule `C[C@@H](NC(=O)c1c[nH]c2ncc(-c3nn(C)c4c(F)c(F)ccc34)nc12)C(=O)N1CC(C#N)C1` gave a melting point of 240 to 250 °C.
On to `CC(=Cc1ccc2ccccc2n1)C(=O)NO`, for which the melting point fell in the range of 182 to 183 °C.
In turn, `CC(=O)Nc1ccc(Sc2c(NCc3ccccc3)cc(C(=O)O)cc2S(N)(=O)=O)cc1` came in with a melting point of 255 to 258 °C.
The same measure for `N#Cc1cc(-c2nc3cncnc3s2)ccc1Oc1ccccc1F`: 195 to 196 °C; for `CC(C)(O)c1nnc2ccc(-c3c(-c4ccc(F)cc4F)nc4occn34)nn12`: 258 to 260 °C.
Regarding `O=C=NC(=O)CS(=O)(=O)c1ccc(Cl)cc1`, the melting point is 58 to 60 °C.
Then `O=C(Nc1ccccc1)N1CCC(C(Nc2ccc(F)cc2)c2ccc(F)cc2)CC1` (centres undefined), with 96 to 101 °C; and `CC(C)(CN)Cc1ccc(CC(C)(C)CN)cc1`, with 53 to 56 °C.
The molecule `Cn1ncc(C(N)=O)c1-c1ccco1` yielded a melting point of 116 °C.
With `O=C(NC(c1ccccc1)c1cc2ccncc2[nH]1)c1cccnc1` (centres undefined), the melting point is 178 to 188 °C.
As for `CN1CCN(C(=S)C2(c3ccccn3)CCCS2)CC1` (centres undefined), the melting point was found to be 124 °C.
Turning to `C=C1CN(c2c(F)cc3c(=O)c(C(=O)O)cn([C@@H]4C[C@@H]4F)c3c2OC)C[C@@]1(C)N`, the melting point is 100 to 102 °C.
As to `COc1ccc(C(=O)Nc2ccc(F)cc2)cc1Nc1cccc(C(F)(F)F)c1`, the melting point fell in the range of 163 to 164 °C.
With `CC(C)(C)SC(=S)c1cc(C(C)(C)C)c(O)c(C(C)(C)C)c1`, the melting point was 128 to 130 °C.
Then `O=C(O)c1ccc(N2C(=O)C3C4C=CC(C4)C3C2=O)cc1` (centres undefined), with 224 to 228 °C; and `Cc1cc(NC(=O)C2(C)CC2)ccc1OC(C)C`, with 99 to 101 °C; and `CCOc1cc(-c2cc(C(F)F)n3ncc(-c4nc(-c5ccc(N)nc5)no4)c3n2)ccc1C(F)(F)F`, with 250 °C.
Then `O=C(O)CCCc1cc2cc(Cl)ccc2n1S(=O)(=O)c1ccc2c(c1)CCO2`, with 174 to 179 °C; and `CC(C)c1cccc(C(C)C)c1NC(=O)NCC1(O)CCc2ccccc21` (centres undefined), with 173 to 174 °C; and `O=S(=O)(c1ccc(O)cc1)c1ncn(-c2ccccc2)c1-c1ccccc1`, with 300 °C.
The same measure for `COc1cc(CCc2ccccc2)c(OC)c2c1C(=O)c1ccccc1C2=O`: 100 °C.
In turn, `CN1C(=O)C2C3CCC(C2C1=O)N1COc2ccccc2N=C31` (centres undefined) returned a melting point of 222 to 224 °C.
For `O=C(O)CC(O)c1ccc(-c2ccc(Cl)c(Cl)c2)o1` (centres undefined), the melting point lay in the range of 95 to 96 °C.
As for `O=c1cc(CNCc2ccccc2)c2ccc(OCc3cccc(Cl)c3)cc2o1`, the melting point lay in the range of 133 to 135 °C.
`O=C1C(Cc2ccccc2)SC(=S)N1c1nc2ccccc2s1` (centres undefined): the melting point was in the range of 187 to 189 °C.
`c1n[nH]c2c1Cc1[nH]ncc1-2` registered a melting point of 180 °C.
Regarding `CCCCNC(=O)C(Cc1ccccc1)NC(=O)c1cc2cc(Cl)ccc2[nH]1` (centres undefined), the melting point was in the range of 192 to 193 °C.
The same measure for `O=C([C@H]1CC[C@H](Nc2ncc3ncnc(Nc4ccc(F)c(Cl)c4)c3n2)CC1)N1CCCC1`: 206 to 209 °C; for `CONC(=N)c1ccc(-c2ccc(-c3ccc(-c4ccc(C(=N)NOC)cc4)o3)o2)cc1`: 258 to 259 °C; for `CN1C(=O)Cc2cc(C(=O)CN3CCN(c4ccccc4)CC3)cnc21`: 136 to 137 °C.
Then `CCOC(=O)C(=NO)C1=Nc2ccc(Cl)cc2C(c2ccccc2Cl)=NC1`, with 219 to 221 °C; and `CC1(Cl)C(=O)N(c2ccc(Cl)c(Cl)c2)N=C1C#N` (centres undefined), with 68 to 69 °C.
Consider `CC(C)C(C)C=CC(C)C1CCC2C1(C)CCC1C23C=CC2(CC(O)CCC12C)OO3` (centres undefined), for which the melting point is 165 to 169 °C.
Then `O=C1c2ccccc2OCN1CCO[N+](=O)[O-]`, with 49 to 51 °C.
The same measure for `CC(C)(CO)NS(=O)(=O)c1cncc(Br)c1`: 112 °C.
For the molecule `Cc1nc2ccccn2c(=O)c1CCN1CCN(c2cccc(Cl)c2)CC1`, the melting point is 112 to 113 °C.
Then `CCCCCCCCCCCCCCCCCCOc1ccc(OCCCc2ccccc2)c(C(=O)O)c1`, with 68 to 70 °C.
Then `O=C(Cc1ccc(Cl)c(Cl)c1)N1CCc2occc2C1CO` (centres undefined), with 155 to 156 °C; and `O=C1c2ccccc2C(=O)N1CCS(=O)(=O)CCO`, with 120 to 122 °C; and `CC(=O)CC(=O)NC1CCCCC1`, with 66 to 69 °C.
The same measure for `COc1cc2c(cc1OC)N(C(=O)c1ccc(-c3ccccc3C(F)(F)F)c(C)c1)Cc1ccc(C(=O)N3CCC(=O)CC3)n1C2`: 132 to 134 °C; for `CCCCc1nccn1Cc1ccc2oc(-c3ccccc3C(=O)O)cc2c1`: 153 to 157 °C.
Consider `O=C=Nc1ccc(-c2n[nH]c3c2Cc2ccccc2-3)cc1`, for which the melting point is 338 to 339 °C.
Then `COC(=O)c1ccc2c(c1)SCCCC2NC(=O)OCc1ccccc1` (centres undefined), with 132 to 134 °C; and `CCOC(=O)NN=Cc1c[nH]c(C(C)(C)C)n1`, with 194 to 197 °C; and `O=C(c1ccc(F)cc1)C1CCN(CCN2c3cccc4cccc(c34)S2(=O)=O)CC1`, with 145 °C.
In the case of `NC(=S)NN=Cc1ccc(N)cn1`, the melting point lay within 205 to 207 °C.
`CC(=O)Nc1ncc(Cc2ccc(Cl)cc2)c(NC(C)=O)n1` came in with a melting point of 147 °C.
The same measure for `CCC1(CC)NC(C)(COC(=O)C(C)(C)C)COC1=O` (centres undefined): 51 to 53 °C; for `CCOC(=O)CCCCCOC1OC(COC(C)=O)C(OC(C)=O)C(OC(C)=O)C1NC(C)=O` (centres undefined): 101 to 102 °C; for `CCC1=C([N+](=O)[O-])C(c2cccc(Cl)c2Cl)c2c[nH]nc2N1` (centres undefined): 250 °C.
Regarding `CC1(C)CCC(C)(C)c2cc(C(N)COc3ccc(C(=O)O)c(O)c3)ccc21` (centres undefined), the melting point is 241 to 242 °C.
The same measure for `CCCc1c(O)ccc2ccc(C(=O)OCC)cc12`: 114 to 115 °C; for `CS(=O)(=O)c1sc(S(N)(=O)=O)cc1CCO`: 120 to 124 °C.
For `CC(C)(C)c1cc(SCCC(=O)NNC=O)cc(C(C)(C)C)c1O`, the melting point was in the range of 158 to 159 °C.
As for `O=C(NN=C(c1ccc(Cl)cc1)c1ccc(OC(F)(F)C(Cl)Cl)cc1)OCC(Cl)(Cl)Cl`, the melting point lay in the range of 97 to 103 °C.
With `Nc1c(Br)cc(Br)n2nc(SCc3ccccc3)nc12`, the melting point was in the range of 116 to 118 °C.
Molecule `Cn1c(=O)oc2cc([N+](=O)[O-])cc(F)c21` had a melting point of 118 to 119 °C.
The same measure for `O=Cc1cccc(OCc2ccco2)c1`: 144 to 146 °C; for `O=C(O)c1nc2cc(Oc3cccc([N+](=O)[O-])c3)c([N+](=O)[O-])cc2[nH]c1=O`: 198 to 200 °C; for `CCCc1nc(C)cc(=O)n1CCOc1ccc(C=C2SC(=O)NC2=O)cc1`: 240 to 242 °C.
`Cc1nnc(-c2ccc3occ(-c4cc(F)ccc4Cl)c3c2)o1`: the melting point fell in the range of 130 to 131 °C.
The molecule `CCOC(=O)N1CCC(C#N)(NC(=O)C(CC2CCCCC2)NC(=O)N2CCOCC2)CC1` (centres undefined) returned a melting point of 140 to 143 °C.
Then `CCC(C)C(NC(=O)C(C)N(C(=O)OC(C)(C)C)C1CCCCC1)C(=O)NC(CC1CCCCC1)C(O)C(O)CC(C)C` (centres undefined), with 181 to 182 °C; and `Nc1c(F)cc(-c2ccccc2)cc1Cl`, with 105 to 107 °C; and `COCCN1CCN(c2ccc(C(=O)NC3(C(=O)NCC#N)CCCCC3)cc2)CC1`, with 166 to 168 °C.
The same measure for `CCn1ccc2c(c1=O)CN=C(N1CCN(Cc3ccccc3)CC1)N2`: 200 to 203 °C; for `CC(Cn1c2ccccc2c2ccccc21)OS(C)(=O)=O` (centres undefined): 125 to 127 °C.
`O=C(O)c1cccnc1Oc1ccc(-c2nnn[nH]2)cc1` had a melting point of 225 to 230 °C.
The same measure for `CN(C)C(=O)/C=C/CSc1nc(N)cc(Cl)n1`: 173 to 176 °C.
Turning to `COc1ccc(-c2cc(C=O)c3occc3c2)cc1`, the melting point lay within 94 to 95 °C.
